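1) Cells in 96-well plates. 2) Compound, 48 h, 5 concentrations. 3) Linear interpolation between surrounding doses. 4) Unreached endpoint = highest concentration. The concentration for full growth arrest is given as TGI.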

Some test systems named below: OVCAR-3 ovarian; IGROV1 ovarian; MALME-3M melanoma; HCT-116 colon; COLO 205 colon; NCI/ADR-RES ovarian; 786-0 renal; ACHN renal; SR leukemia; DU-145 prostate.
Holding throughout (test): NCI-60 cell line screen, 48 h

As for `O=C(O)/C=C/c1c[nH]c(=O)[nH]c1=O`, the TGI was > 500 µM in the assay on OVCAR-3 ovarian; > 500 µM in the assay with IGROV1 ovarian; > 500 µM with MALME-3M melanoma; > 500 µM in the assay on HCT-116 colon; > 500 µM in the assay on COLO 205 colon; > 472 µM in the assay on NCI/ADR-RES ovarian.

`Clc1ccc(C[P+](c2ccccc2)(c2ccccc2)c2ccccc2)cc1Cl`: the TGI in the assay with OVCAR-3 ovarian was determined as 6.74 µM; in the assay with IGROV1 ovarian it was 14.6 µM; in the assay with MALME-3M melanoma it was 7.8 µM; in the assay on 786-0 renal, 17 µM; in the assay with HCT-116 colon it was 10.8 µM; with ACHN renal, 31.2 µM. Besides, the TGI in the assay on SR leukemia was > 100 µM; in the assay with COLO 205 colon, 2.95 µM.

Take `CN(CCNC(=O)c1c[nH]c2c1Cc1ccccc1-2)CCNC(=O)c1c[nH]c2c1Cc1ccccc1-2`: the TGI in the assay on OVCAR-3 ovarian is 73.7 µM; in the assay on IGROV1 ovarian, > 100 µM; with MALME-3M melanoma, > 100 µM; with 786-0 renal, 44.8 µM; in the assay with HCT-116 colon it was > 100 µM; in the assay with ACHN renal, > 100 µM. Also, the TGI with DU-145 prostate, in the assay on SR leukemia, in the assay on COLO 205 colon and in the assay on NCI/ADR-RES ovarian was > 100 µM throughout.

Turning to `NC(=S)N1N=C2c3ccccc3CC[C@H]2[C@@H]1c1ccc(Cl)cc1`, the TGI in the assay with OVCAR-3 ovarian was > 100 µM; in the assay on IGROV1 ovarian it was > 100 µM; in the assay with MALME-3M melanoma, 52.6 µM; in the assay on 786-0 renal, > 100 µM; in the assay with HCT-116 colon, 37.3 µM; in the assay on ACHN renal, > 100 µM. Also, the results for the TGI with SR leukemia and in the assay on COLO 205 colon were > 100 µM and 34.8 µM, respectively.

In the case of `C=C=CC(NC(=O)c1ccccc1)(C(=O)O)C(F)(F)F` (stereo unspecified), the TGI with IGROV1 ovarian, in the assay on MALME-3M melanoma, in the assay on HCT-116 colon, in the assay on ACHN renal, in the assay on SR leukemia and in the assay with COLO 205 colon was > 100 µM in each case.

In the case of `C#CCN(Cc1ccc2nc(-c3ccccc3)c(N)nc2c1)c1cc(OC)c(OC)c(OC)c1`, the TGI in the assay with OVCAR-3 ovarian is 59 µM; with IGROV1 ovarian, > 100 µM; in the assay on MALME-3M melanoma, 83.3 µM; in the assay on 786-0 renal it was > 100 µM; with HCT-116 colon, 57.7 µM; in the assay on ACHN renal, 80.7 µM. Also, the TGI came out at 39.2 µM in the assay with SR leukemia and 42.8 µM in the assay on COLO 205 colon.

`O=c1[nH]c(=O)n(COCc2ccccc2)cc1Nc1ccc(Br)cc1`: the TGI in the assay with OVCAR-3 ovarian, in the assay with IGROV1 ovarian, in the assay on 786-0 renal, in the assay with HCT-116 colon, with ACHN renal and in the assay with DU-145 prostate was > 100 µM each time. Also, the TGI in the assay on SR leukemia, in the assay with COLO 205 colon and with NCI/ADR-RES ovarian was > 100 µM in each case.

For `O=C1CN(c2cccc(Cl)c2)C(=O)CN1NCNN1CC(=O)N(c2cccc(Cl)c2)CC1=O`, the TGI in the assay with OVCAR-3 ovarian, in the assay with IGROV1 ovarian, in the assay on MALME-3M melanoma, in the assay on 786-0 renal, with HCT-116 colon and with ACHN renal was > 100 µM throughout. Besides, the TGI with DU-145 prostate, in the assay on SR leukemia and with COLO 205 colon was > 100 µM throughout.

As for `C[C@H](CCC1SC1(C)C)C1CCC2(C)C3=C(CC[C@]12C)[C@@]1(C)CC[C@H](O)C(C)(C)C1CC3` (stereo partly specified), the TGI in the assay with OVCAR-3 ovarian, with IGROV1 ovarian, in the assay with MALME-3M melanoma, with 786-0 renal, with HCT-116 colon and with ACHN renal was > 100 µM throughout. The TGI in the assay on SR leukemia and in the assay with COLO 205 colon was > 100 µM each time.

Regarding `CCn1c2ccccc2c2c(-c3ccccc3)cc3c(c21)C(=O)N(c1ccccc1)C3=O`, the TGI in the assay on OVCAR-3 ovarian, in the assay on IGROV1 ovarian, in the assay on MALME-3M melanoma, in the assay with 786-0 renal, in the assay with HCT-116 colon and with ACHN renal was > 100 µM in each case. Besides, the TGI with SR leukemia and in the assay with COLO 205 colon was > 100 µM throughout.

`Cc1nc2cc(Nc3ccccc3C(=O)O)ccc2s1`: the TGI in the assay on OVCAR-3 ovarian, with IGROV1 ovarian, with MALME-3M melanoma, in the assay on 786-0 renal, in the assay on HCT-116 colon and in the assay on ACHN renal was > 100 µM throughout. Besides, the TGI with SR leukemia and in the assay on COLO 205 colon was > 100 µM each time.

With `C/C(N=NS(=O)(=O)c1ccc([N+](=O)[O-])cc1)=C1\C=CC=CN1O`, the TGI in the assay with OVCAR-3 ovarian, in the assay with IGROV1 ovarian, in the assay with 786-0 renal, with HCT-116 colon, in the assay on ACHN renal and in the assay on SR leukemia was > 100 µM each time.

For `NC(=O)CC(N=Cc1nc(-c2ccccc2)oc1O)C(=O)O` (stereo unspecified), the TGI with OVCAR-3 ovarian, with IGROV1 ovarian, in the assay on MALME-3M melanoma, with 786-0 renal, in the assay with HCT-116 colon and in the assay on ACHN renal was > 100 µM in each case. In addition, the TGI in the assay with COLO 205 colon is > 100 µM.

These data come from PubChem BioAssay (NCI).
